Assay [1] concerns the target T1, RAIG3 (Homo sapiens, UniProt Q9NQ84).
T1 construct: expressed in transfected cells; host or cells: mouse insulinoma MIN6 cells, transient transfection with pIRES2-EGFP (CLONTECH) vector
Kind of assay: Insulin secretion in MIN6 cells having RAIG3 expressed forcibly (ELISA). The format is cell-based. The conditions noted are these: 0.6 mM 1,5-AG added to 2.8 mM glucose, FIG. 2b. As to the method:
(§1) Mouse insulinoma MIN6 cells (supplied by Dr. Junichi Miyazaki at the Division of Stem Cell Regulation Research, Department of Molecular Therapeutics, G6 Division of Pathophysiology and Therapeutics, Osaka University Graduate School of Medicine) were cultured in a 24-well plate containing a DMEM comprising 15% fetal calf serum (inactivated by treatment at 56° C. for 30 minutes), 5 μl/l β-mercaptoethanol and 4.5 g/l glucose, in an atmosphere of 5% CO2/95% air, at 37° C. and low density. cDNAs of RAIG2 and RAIG3 were obtained from a human brain or liver cDNA library by a conventional method of PCR. This was inserted into pIRES2-EGFP (CLONTECH). After 24 hours, the above-described cells were transfected with an expression vector containing the RAIG2 or RAIG3 cDNA. The transfection was performed using Lipofectamin 2000 (Invitrogen), as directed in the manufacturer's manual. After 48 hours of further cultivation, the cells were retained in a KRBB solution [129 mM NaCl, 4.8 mM KCl, 1.2 mM MgSO4, 1.2 mM KH2PO4, 4.8 mM NaHCO3, 10 mM HEPES, 2.5 mM CaCl2, 0.2% bovine serum albumin (pH adjusted to 7.4)] containing 2.8 mM glucose at 37° C. for 15 minutes, and then washed. […] Each 10 μl portion of the culture supernatant was taken, and the insulin content was measured by ELISA.
Background: ELISA stands for enzyme-linked immunosorbent assay.

In assay [2] the target is T2, RAIG2 (Homo sapiens, UniProt Q9NZH0).
T2 construct: expressed in transfected cells; host or cells: mouse insulinoma MIN6 cells, transient transfection with pIRES2-EGFP (CLONTECH) vector
Nature of the assay: Insulin secretion in MIN6 cells having RAIG2 expressed forcibly (ELISA). As to conditions: 0.6 mM 1,5-AG added to 2.8 mM glucose, FIG. 2a. The format is cell-based, mouse. As to the method:
as §1

The record followed here is patent publication US20090170773A1, “NOVEL USE OF G-PROTEIN-CONJUGATED RECEPTOR AND LIGAND THEREOF” (RIKEN, priority 2006, published 2009).

Molecules are shown by their SMILES.

T1 sequence (Q9NQ84 1-453 isoform Q9NQ84-2): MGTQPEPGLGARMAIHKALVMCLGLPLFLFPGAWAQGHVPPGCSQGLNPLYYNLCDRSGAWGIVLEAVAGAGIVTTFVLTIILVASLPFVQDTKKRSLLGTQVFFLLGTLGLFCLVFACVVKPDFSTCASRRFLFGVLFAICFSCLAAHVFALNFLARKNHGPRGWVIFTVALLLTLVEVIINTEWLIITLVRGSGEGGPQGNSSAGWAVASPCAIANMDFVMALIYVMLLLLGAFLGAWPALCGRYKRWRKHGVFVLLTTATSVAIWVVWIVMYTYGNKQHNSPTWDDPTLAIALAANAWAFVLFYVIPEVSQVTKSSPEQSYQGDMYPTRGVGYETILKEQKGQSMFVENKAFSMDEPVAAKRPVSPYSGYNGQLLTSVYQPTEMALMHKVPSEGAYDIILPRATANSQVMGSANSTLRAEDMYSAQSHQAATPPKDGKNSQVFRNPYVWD
T2 sequence (Q9NZH0 29-403): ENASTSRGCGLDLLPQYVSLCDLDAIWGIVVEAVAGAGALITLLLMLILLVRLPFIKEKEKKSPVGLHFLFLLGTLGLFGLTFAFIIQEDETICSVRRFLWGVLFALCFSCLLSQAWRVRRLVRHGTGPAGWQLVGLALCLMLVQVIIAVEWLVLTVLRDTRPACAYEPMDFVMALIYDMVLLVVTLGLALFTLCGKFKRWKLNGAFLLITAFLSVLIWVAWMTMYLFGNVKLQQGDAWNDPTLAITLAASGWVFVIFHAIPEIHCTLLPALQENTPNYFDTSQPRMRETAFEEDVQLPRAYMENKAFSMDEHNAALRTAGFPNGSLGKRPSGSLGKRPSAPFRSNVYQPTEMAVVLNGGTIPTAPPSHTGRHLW

For the compound `OC[C@H]1OC[C@H](O)[C@@H](O)[C@@H]1O` [1,5-AG, 1,5-anhydroglucitol], the insulin release result in assay [1] and in assay [2] was “insulin release equivalent to that with 20 mM glucose” each time.
